Earlier results as cited in US20260226377A1, “BIODEGRADABLE MICROCAPSULES CONTAINING LOW LOG P FRA-GRANCE” (priority 2023, published 2026).

Conditions: octanol/water; source of values not stated (b29 refers to reported values, Pomona92 database)

O=Cc1ccccc1 [benzaldehyde]
logP value: 1.70
